Where two headings read alike, the source gives them in different places.

For orientation: GI50 means the concentration giving 50% growth inhibition.

Series [1] concerns Human prostate cancer cell line (PC-3). The experiment in a line: MTT cell proliferation assay, cytotoxicity and GI50, PC-3. The note with it: read-out: Cytotoxic activity (GI50 Values) PC-3.
Method: Cell Culture and Cytotoxicity:
(§1) Human prostate cancer cell line (PC-3) and human colon cancer cell line (HT-29) were obtained from the German Collection of Microorganisms. All cell lines were cultivated under conditions recommended by their respective depositors. […] For PC-3 cell lines 500 cells per well and for HT-29 cell lines 1500-2000 cells per well were seeded overnight into 96-well cell culture plates (TPP, Trasadingen, Switzerland) and exposed to serial dilutions of each inhibitor for 3 days. Formazan salt formation was measured at 490 nm using an enzyme-linked immunosorbent assay (ELISA) reader (DYNEX technologies MRX TC II). From each compound four independent replicates were prepared.
Series [2] deals with human colon cancer cell line (HT-29). The experiment in a line: MTT cell proliferation assay, cytotoxicity and GI50, HT-29. The note with it: read-out: Cytotoxic activity (GI50 Values) HT-29. On the technique in general: Tetrazolium assays rely on reduction of a dye to a coloured formazan, in cell work by metabolically active cells.
Method: Cell Culture and Cytotoxicity:
as §1

Regarding `CC(=O)O[C@H]1C(=O)[C@@]2(C)[C@H]([C@H](OC(=O)c3ccccc3)[C@]3(O)C[C@H](OC(=O)[C@H](O)[C@@H](NC(=O)c4ccccc4)c4ccccc4)C(C)=C1C3(C)C)[C@]1(OC(C)=O)CO[C@@H]1C[C@@H]2O` [taxol, reference compound], the GI50 in series [1] (Homo sapiens, PC-3, 72 h) worked out at 7.2 nM; in series [2] (Homo sapiens, HT-29, 72 h), 5.3 nM.

Take `CCCCNC(=O)CN(C(=O)[C@@H](NC(=O)[C@H]1CCCCN1C)[C@@H](C)CC)[C@H](C[C@@H](OC(C)=O)c1nc(C(=O)N[C@@H](Cc2ccccc2)C[C@H](C)C(=O)O)cs1)C(C)C` [tubugi A]: the GI50 in series [1] (Homo sapiens, PC-3, 72 h) was 0.23 nM; in series [2] (Homo sapiens, HT-29, 72 h), 0.14 nM.

Take `CC[C@H](C)[C@H](NC(=O)[C@H]1CCCCN1C)C(=O)N(CC(=O)NC(C)C)[C@H](C[C@@H](OC(C)=O)c1nc(C(=O)N[C@@H](Cc2ccccc2)C[C@H](C)C(=O)O)cs1)C(C)C` [tubugi B]: the GI50 in series [1] (Homo sapiens, PC-3, 72 h) was 0.29 nM; in series [2] (Homo sapiens, HT-29, 72 h), 0.34 nM.

As to `CCCCNC(=O)C(C)N(C(=O)[C@@H](NC(=O)[C@H]1CCCCN1C)[C@@H](C)CC)[C@H](C[C@@H](OC(C)=O)c1nc(C(=O)N[C@@H](Cc2ccccc2)C[C@H](C)C(=O)O)cs1)C(C)C` (stereo partly shown) [tubugi D], the GI50 in series [1] (Homo sapiens, PC-3, 72 h) was 0.22 nM; in series [2] (Homo sapiens, HT-29, 72 h), 0.56 nM.

As for `CC[C@H](C)[C@H](NC(=O)[C@H]1CCCCN1C)C(=O)N(COC(=O)CC(C)C)[C@H](C[C@@H](OC(C)=O)c1nc(C(=O)N[C@@H](Cc2ccc(O)cc2)C[C@H](C)C(=O)O)cs1)C(C)C` [tubulysin A, reference compound], the GI50 in series [1] (PC-3 cells, exposed 3 days, MTT, four independent replicates) was 0.21 nM; in series [2] (HT-29 cells, exposed 3 days, MTT, four independent replicates), 0.32 nM.
